Results from ChEMBL document CHEMBL1201862, “PubChem BioAssay data set” (2004).
Calls of active or inactive are those of the source.

What was measured:
[1] = biological target: G-protein coupled receptor 55 (Homo sapiens, UniProt Q9Y2T6); assay: GPR55 agonists via beta-arrestin recruitment, primary screen, imaging, U2OS cells, beta-arrestin-GFP redistribution (AID 1961); format: functional
[2] = A549 cell cytotoxicity, dose response, cytotoxicity control, plate reader, cherry-pick, antagonist series (AID 743412); format: functional, cell-based
[3] = HepG2 cell cytotoxicity, dose response, cytotoxicity control, plate reader, cherry-pick, antagonist series (AID 743416); format: functional, cell-based
cells = format: functional
[4] = HepG2 cell cytotoxicity, dose response, cytotoxicity control for Shn3 inhibitor project, CellTiter-Glo, cherry-picked (AID 624134); format: functional, cell-based
[5] = biological target: G2/mitotic-specific cyclin-B1 (Homo sapiens, UniProt P14635); assay: Counterscreen assay for inhibitors of Wee1 degradation: dose response cell-based assay to identify inhibitors of cyclin B degradation. [Related pubchem assays: 1410, 1321 ]; format: functional
[6] = Vero E6 cell cytotoxicity, dose response, cytotoxicity control for non-replicating M. tuberculosis project, secondary assay (AID 492998); format: functional, VeroE6; settings: Vero C1008
[7] = biological target: T1, Heat shock factor protein 1 (Mus musculus, UniProt P38532); assay: inhibition of MG132-induced HSE-luciferase signal, confirmation, cell-based, NIH3T3, luminescence, dose retest (AID 2382); format: functional;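 also: NIH3T3 fibroblasts with HSF1-driven luciferase reporter stressed by proteasome inhibitor MG132; luminescence from HSF1-driven luciferase expression after 8 hours of MG132 stress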
T1 sequence (P38532 whole entry): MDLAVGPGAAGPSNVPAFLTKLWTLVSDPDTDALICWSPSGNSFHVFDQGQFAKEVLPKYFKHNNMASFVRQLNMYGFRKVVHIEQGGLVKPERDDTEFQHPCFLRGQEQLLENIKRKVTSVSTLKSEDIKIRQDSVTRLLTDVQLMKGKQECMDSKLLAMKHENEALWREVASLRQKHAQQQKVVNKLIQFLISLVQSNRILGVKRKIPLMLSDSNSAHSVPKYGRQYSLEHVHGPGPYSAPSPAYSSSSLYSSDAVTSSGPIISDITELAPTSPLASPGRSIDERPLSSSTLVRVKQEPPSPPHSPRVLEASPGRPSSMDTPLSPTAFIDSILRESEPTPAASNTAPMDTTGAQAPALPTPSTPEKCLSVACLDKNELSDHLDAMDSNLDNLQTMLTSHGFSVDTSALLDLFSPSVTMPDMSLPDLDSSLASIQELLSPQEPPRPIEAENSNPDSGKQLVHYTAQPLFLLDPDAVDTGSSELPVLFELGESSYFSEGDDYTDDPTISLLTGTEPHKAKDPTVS

[8] = Shn3 3'UTR reporter inhibitors, dose response, cell-based, Clone20 osteoblasts, firefly luciferase, cherry-picked (AID 624132); format: functional;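 also: firefly luciferase luminescence from reporter carrying the Shn3 3'UTR in osteoblasts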
[9] = MC4R antagonists, dose response, counter-screen for LGR2 antagonist project, cell-based, plate reader, cherry pick (AID 743444); format: functional;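 also: transfected HEK 293 cells stimulated with alpha-MSH peptide; potency of inhibitors of the alpha-MSH evoked signal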
Wee1-like protein kinase = Wee1-like protein kinase (Homo sapiens, UniProt P30291); assay: Dose Response Cell-based Assay for Inhibitors of Wee1 Degradation. [Related pubchem assays: 1410, 1321 ]; format: functional
[10] = cytotoxicity in HEK-293T cells, dose response, cytotoxicity control for TCR NF-kB inhibitor project, luminescence, T-cell screen hits (AID 489026); format: functional, cell-based;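 also: cells exposed to compound about 14 hours before the viability readout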
[11] = HEK293 cell cytotoxicity, dose response, cytotoxicity control, plate reader, cherry-picked samples (AID 743446); format: functional, cell-based
HeLa = assay: Cytotoxicity counterscreen assay for transcriptional activators of heat shock protein 70 (Hsp70). [Related pubchem assays: 1203, 1252 ]; format: functional; settings: Homo sapiens;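 also: cells exposed to compound for 16 hours before readout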
[12] = control 3'UTR Renilla luciferase suppression, dose response, counter-screen for Shn3 inhibitor project, cell-based, Clone20-Shn3RL, cherry-picked (AID 624133); format: functional
[13] = HepG2 cell cytotoxicity, dose response, cytotoxicity control for non-replicating M. tuberculosis project (AID 489018); format: functional; settings: Mycobacterium tuberculosis
[14] = LGR2 antagonists, dose response, cell-based, HEK293, CRE-luciferase reporter, cherry pick, set 2 (AID 743343); format: functional;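 also: transfected cells were stimulated with diluted bursicon conditioned medium after compound addition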
[15] = THP-1 cell cytotoxicity, dose response, cytotoxicity control for non-replicating M. tuberculosis project (AID 489025); format: functional
[16] = biological target: 1-acylglycerol-3-phosphate O-acyltransferase ABHD5/Perilipin-5 (Homo sapiens, UniProt Q00G26+Q8WTS1); assay: Luminescence-based biochemical high throughput dose response assay for inhibitors of the interaction of the lipase co-activator protein, abhydrolase domain containing 5 (ABHD5) with perilipin-5 (MLDP; PLIN5) (2K validation set). [Related pubchem assays (depositor defined):AID493035, AID493241]
Perilipin-1/ABHD5 = Perilipin-1/ABHD5 (Homo sapiens, UniProt O60240+Q8WTS1); assay: Luminescence-based biochemical high throughput dose response assay for inhibitors of the interaction of the lipase co-activator protein, abhydrolase domain containing 5 (ABHD5) with perilipin-1 (PLIN1) (2K validation set). [Related pubchem assays (depositor defined):AID493027, AID493057]
Mucolipin-3 = biological target: T2, Mucolipin-3 (Homo sapiens, UniProt Q8TDD5); assay: Fluorescence counterscreen assay for […] agonists: dose response cell-based high-throughput screening assay to identify agonists of the transient receptor potential channel ML3 (TRPML3). [Related pubchem assays: 1424, 1448 ]; format: functional
T2 sequence (Q8TDD5 whole entry): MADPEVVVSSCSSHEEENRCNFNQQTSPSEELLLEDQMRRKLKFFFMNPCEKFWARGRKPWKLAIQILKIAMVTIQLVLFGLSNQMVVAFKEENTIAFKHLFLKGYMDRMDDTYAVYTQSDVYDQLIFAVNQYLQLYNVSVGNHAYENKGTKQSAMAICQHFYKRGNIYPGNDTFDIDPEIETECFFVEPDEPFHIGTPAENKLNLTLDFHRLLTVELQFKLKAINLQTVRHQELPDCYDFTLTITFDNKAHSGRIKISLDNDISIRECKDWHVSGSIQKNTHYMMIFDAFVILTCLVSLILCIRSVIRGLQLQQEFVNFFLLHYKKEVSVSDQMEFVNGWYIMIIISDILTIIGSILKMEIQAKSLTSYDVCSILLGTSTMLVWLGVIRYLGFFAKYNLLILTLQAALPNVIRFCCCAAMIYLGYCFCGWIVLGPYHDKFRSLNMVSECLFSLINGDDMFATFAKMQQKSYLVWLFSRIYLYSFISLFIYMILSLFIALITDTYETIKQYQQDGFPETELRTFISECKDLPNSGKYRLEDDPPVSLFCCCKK

Ion channel NompC = Ion channel NompC (Danio rerio, UniProt Q7T1G6); assay: Dose response cell-based high-throughput screening assay for agonists of the transient receptor potential channel N1 (TRPN1). [Related pubchem assays (depositor defined):AID1424, AID1448]; format: functional
[17] = biological target: Sphingosine 1-phosphate receptor 4 (Homo sapiens, UniProt O95977); assay: S1P4 receptor agonists, human, late-stage follow-up, cell-based, fluorescence, synthesized compounds (AID 463107); format: functional
Sequence of Sphingosine 1-phosphate receptor 4 (O95977 whole entry): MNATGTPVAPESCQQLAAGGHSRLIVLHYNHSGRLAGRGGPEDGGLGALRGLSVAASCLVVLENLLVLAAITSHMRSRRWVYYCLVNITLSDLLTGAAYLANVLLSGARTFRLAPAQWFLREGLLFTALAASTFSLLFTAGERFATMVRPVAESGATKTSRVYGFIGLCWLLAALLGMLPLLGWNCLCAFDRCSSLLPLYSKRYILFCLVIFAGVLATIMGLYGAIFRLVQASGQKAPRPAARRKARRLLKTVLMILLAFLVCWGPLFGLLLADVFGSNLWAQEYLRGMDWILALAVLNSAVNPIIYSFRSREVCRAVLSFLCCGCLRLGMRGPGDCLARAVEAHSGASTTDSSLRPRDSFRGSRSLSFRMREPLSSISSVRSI

Sequence of G-protein coupled receptor 55 (Q9Y2T6 whole entry): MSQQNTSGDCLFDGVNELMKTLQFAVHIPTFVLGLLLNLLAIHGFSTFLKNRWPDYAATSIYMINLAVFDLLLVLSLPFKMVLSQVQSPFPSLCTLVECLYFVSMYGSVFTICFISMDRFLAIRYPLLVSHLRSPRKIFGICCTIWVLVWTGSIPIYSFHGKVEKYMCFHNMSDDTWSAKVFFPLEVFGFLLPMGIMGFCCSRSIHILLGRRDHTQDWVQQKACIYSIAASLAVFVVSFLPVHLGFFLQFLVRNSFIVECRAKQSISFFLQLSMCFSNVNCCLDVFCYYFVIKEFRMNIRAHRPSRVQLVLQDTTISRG
Sequence of 1-acylglycerol-3-phosphate O-acyltransferase ABHD5/Perilipin-5 (Q00G26 whole entry, the tested form may be a part): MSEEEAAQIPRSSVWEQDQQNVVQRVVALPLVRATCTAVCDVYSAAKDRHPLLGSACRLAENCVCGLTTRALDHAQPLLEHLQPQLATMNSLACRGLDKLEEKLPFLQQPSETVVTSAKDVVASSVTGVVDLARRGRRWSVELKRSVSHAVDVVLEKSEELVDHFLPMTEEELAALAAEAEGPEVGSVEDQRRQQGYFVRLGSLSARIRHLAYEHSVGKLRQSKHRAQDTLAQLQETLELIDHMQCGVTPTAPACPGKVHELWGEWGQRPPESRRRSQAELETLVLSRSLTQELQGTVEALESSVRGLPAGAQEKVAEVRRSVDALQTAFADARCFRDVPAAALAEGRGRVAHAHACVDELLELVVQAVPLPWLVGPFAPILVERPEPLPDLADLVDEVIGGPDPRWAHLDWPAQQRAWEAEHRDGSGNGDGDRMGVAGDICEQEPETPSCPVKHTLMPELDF
Sequence of 1-acylglycerol-3-phosphate O-acyltransferase ABHD5/Perilipin-5 (Q8WTS1 whole entry, the tested form may be a part): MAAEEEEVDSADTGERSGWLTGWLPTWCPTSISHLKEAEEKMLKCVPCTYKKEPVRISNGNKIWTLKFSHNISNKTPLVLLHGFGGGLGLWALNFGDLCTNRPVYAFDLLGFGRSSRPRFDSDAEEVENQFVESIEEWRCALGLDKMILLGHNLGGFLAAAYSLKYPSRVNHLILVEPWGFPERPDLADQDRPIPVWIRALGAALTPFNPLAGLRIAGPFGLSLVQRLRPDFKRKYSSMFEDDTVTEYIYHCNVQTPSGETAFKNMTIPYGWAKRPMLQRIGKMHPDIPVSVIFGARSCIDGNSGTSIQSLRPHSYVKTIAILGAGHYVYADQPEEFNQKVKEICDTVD
Sequence of Perilipin-1/ABHD5 (Q8WTS1 whole entry, the tested form may be a part): as above
Sequence of Perilipin-1/ABHD5 (O60240 whole entry, the tested form may be a part): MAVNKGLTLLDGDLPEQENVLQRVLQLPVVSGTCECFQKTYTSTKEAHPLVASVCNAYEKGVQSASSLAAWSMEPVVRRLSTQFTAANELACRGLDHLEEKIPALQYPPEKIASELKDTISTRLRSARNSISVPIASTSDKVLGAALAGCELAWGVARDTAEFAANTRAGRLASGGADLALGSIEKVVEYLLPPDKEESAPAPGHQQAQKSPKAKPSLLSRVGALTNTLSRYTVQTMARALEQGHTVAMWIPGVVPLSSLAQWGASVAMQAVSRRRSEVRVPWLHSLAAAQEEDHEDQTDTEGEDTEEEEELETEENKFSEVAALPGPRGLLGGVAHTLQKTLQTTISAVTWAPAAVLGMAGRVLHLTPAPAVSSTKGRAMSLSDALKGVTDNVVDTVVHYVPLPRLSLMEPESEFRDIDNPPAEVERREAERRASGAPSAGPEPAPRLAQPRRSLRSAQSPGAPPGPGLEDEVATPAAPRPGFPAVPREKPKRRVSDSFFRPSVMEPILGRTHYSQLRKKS
Sequence of Ion channel NompC (Q7T1G6 whole entry): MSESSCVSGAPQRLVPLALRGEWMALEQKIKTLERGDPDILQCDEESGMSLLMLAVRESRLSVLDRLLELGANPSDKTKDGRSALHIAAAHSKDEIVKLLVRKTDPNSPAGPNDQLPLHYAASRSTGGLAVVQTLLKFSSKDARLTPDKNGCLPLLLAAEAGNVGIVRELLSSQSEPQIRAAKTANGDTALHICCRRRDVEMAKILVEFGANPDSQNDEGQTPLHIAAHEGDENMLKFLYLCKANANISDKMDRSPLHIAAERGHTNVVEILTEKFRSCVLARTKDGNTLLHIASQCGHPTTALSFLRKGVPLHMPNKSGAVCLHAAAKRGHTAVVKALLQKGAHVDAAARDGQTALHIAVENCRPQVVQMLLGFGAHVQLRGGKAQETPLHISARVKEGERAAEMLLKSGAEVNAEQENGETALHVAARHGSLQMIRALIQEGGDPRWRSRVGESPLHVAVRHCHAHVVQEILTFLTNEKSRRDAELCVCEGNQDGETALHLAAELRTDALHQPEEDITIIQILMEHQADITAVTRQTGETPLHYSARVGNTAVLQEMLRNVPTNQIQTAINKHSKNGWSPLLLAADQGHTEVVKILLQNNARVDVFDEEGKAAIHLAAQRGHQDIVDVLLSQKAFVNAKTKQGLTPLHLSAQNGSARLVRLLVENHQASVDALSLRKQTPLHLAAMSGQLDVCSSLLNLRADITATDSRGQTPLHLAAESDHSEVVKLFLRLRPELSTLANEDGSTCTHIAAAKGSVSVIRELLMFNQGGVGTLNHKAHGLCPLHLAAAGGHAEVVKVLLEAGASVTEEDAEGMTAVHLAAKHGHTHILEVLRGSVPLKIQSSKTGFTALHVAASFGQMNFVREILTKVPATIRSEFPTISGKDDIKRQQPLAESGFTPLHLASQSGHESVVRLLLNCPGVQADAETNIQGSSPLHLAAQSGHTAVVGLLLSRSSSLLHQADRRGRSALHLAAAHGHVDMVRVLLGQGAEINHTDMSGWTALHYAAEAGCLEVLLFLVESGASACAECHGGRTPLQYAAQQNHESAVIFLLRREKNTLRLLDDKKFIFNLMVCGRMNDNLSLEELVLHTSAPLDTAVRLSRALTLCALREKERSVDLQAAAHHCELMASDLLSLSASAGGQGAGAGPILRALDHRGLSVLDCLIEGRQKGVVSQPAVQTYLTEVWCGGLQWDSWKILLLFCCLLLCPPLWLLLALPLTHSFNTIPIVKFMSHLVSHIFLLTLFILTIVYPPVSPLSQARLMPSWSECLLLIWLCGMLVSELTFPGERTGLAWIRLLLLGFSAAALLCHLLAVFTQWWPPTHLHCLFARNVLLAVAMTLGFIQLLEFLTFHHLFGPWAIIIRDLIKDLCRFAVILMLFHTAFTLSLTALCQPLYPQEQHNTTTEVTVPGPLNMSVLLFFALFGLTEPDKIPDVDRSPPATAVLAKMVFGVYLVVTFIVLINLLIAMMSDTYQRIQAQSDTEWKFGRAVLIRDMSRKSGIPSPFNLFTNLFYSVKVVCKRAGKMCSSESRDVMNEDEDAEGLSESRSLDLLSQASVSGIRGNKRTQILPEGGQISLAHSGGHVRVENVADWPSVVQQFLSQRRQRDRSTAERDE
Sequence of G2/mitotic-specific cyclin-B1 (P14635 whole entry): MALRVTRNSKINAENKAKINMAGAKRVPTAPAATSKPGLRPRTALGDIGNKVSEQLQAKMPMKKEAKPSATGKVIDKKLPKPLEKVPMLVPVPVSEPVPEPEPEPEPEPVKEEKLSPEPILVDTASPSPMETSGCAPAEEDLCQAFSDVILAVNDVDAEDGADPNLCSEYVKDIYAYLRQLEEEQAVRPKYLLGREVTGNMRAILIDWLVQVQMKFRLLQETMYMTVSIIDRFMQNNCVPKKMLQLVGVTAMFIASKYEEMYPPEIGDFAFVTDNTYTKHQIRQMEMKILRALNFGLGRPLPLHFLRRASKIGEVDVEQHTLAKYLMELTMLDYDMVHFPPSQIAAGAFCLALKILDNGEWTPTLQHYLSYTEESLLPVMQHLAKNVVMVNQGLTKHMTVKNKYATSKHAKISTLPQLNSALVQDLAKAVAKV
Sequence of Wee1-like protein kinase (P30291 whole entry): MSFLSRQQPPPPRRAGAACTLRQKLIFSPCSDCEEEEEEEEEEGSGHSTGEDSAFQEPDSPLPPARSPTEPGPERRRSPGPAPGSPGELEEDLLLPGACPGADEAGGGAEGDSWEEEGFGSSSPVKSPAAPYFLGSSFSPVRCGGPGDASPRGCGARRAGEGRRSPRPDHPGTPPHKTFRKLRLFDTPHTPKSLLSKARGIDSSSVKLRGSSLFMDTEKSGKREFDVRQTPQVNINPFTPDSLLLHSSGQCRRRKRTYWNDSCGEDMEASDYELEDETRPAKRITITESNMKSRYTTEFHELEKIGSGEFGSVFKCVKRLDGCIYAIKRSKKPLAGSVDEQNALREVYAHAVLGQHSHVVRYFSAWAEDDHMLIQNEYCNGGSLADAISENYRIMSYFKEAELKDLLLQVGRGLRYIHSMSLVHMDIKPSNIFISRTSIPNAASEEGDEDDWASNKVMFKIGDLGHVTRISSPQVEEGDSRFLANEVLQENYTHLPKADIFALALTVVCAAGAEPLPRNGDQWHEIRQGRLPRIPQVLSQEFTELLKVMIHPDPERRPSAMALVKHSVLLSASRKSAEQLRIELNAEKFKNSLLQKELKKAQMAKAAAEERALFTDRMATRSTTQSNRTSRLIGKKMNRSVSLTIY

For `COc1cc(S(=O)(=O)N2CCOCC2)ccc1NC(=O)c1cc2c(s1)CCC2`, the EC50 [1] was 2.83 µM (active).

With `O=C1C=CC(O)(c2cc(=O)c3c(O)cc(O)cc3o2)C=C1` [PROTOAPIGENONE] the AC50 [2] was 6.31 µM (active), the AC50 [3] was 7.09 µM (active) and the IC50 (cells) was 3.02 µM (active). For the same compound, the AC50 [4] was 32.3 µM (active), the EC50 [5] was > 1.84 µM (active) and the CC50 [6] was 3.28 µM (active). The EC50 [7] was 4.28 µM (active), the AC50 [8] was 5.12 µM (active) and the AC50 [9] was 27.1 µM (active). The EC50 (Wee1-like protein kinase) was > 1.84 µM (active), the IC50 [10] was > 80 µM (inactive) and the AC50 [11] was 5.13 µM (active). For the same compound, the CC50 (HeLa) was > 1.22 µM (not active), the AC50 [12] was 4.47 µM (active) and the CC50 [13] was 5.74 µM (active). The AC50 [14] was 21.4 µM (active) and the CC50 [15] was 2.6 µM (active).

For `CCOC(=O)C(=Cc1ccccc1OC)C(=O)OCC`, the IC50 [16] was 15.3 µM (inactive) and the IC50 (Perilipin-1/ABHD5) was 11.5 µM (inactive).

In the case of `COC(=O)c1cccc(NC(=O)Nc2ccc(Cl)cc2)c1`, the EC50 (Mucolipin-3) is reported as > 29.9 µM (not active) and the EC50 (Ion channel NompC) is reported as > 29.9 µM (inactive).

With `Cc1ccc(C#N)c(OCCOc2ccc(Cl)cc2Cl)n1` the EC50 [17] was > 50 µM (inactive).
